Measurements taken from patent US5932733A, “3-amino-2-oxo-1-piperidineacetic derivatives containing an arginine mimic as enzyme inhibitors” (Corvas International, Inc., priority 1995, dated 1999).

Experiments:
[1] = target: T1, rt-PA (Homo sapiens, UniProt P00750); experiment: In vitro enzyme assay for specificity: recombinant tissue plasminogen activator; format: biochemical; details: 1.0 nM enzyme, 30 min preincubation, pH 7.5; mean of at least two experiments
T1 construct: purchased Genentech Inc
Description: Recombinant tissue plasminogen activator (rt-PA)

[2] = target: T2, Trypsin (Bos taurus, UniProt P00760); experiment: In vitro enzyme assay for specificity: trypsin; format: biochemical, bovine; details: 0.5 nM enzyme, 30 min preincubation, pH 7.5; mean of at least two experiments
T2 sequence (P00760 24-246): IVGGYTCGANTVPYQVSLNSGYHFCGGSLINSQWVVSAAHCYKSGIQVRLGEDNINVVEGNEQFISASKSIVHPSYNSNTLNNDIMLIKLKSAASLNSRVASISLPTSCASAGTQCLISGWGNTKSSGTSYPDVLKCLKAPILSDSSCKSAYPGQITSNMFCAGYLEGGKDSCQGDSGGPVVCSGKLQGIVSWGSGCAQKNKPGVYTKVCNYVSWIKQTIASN
Description: Trypsin catalytic activity was determined using the chromogenic substrate, S-2222 (benzoyl-L-isoleucine-L-glutamic acid- (gamma-methyl ester)-L-arginine-p-nitroanilide), which was obtained from Kabi Diagnostica. […] Purified (3×-crystallized; TRL3) bovine pancreatic trypsin was obtained from Worthington Biochemical Corp. The enzyme was reconstituted in deionized water and diluted into HBSA prior to assay in which the final concentration was 0.5 nM.

[3] = target: T3, aPC (Homo sapiens, UniProt P04070); experiment: In vitro enzyme assay for specificity: activated protein C; format: biochemical; details: 1.0 nM enzyme, 30 min preincubation, pH 7.5; mean of at least two experiments
T3 construct: purchased Hematologic Technologies, Inc
Description: Activated Protein C (aPC)
aPC catalytic activity was determined using the chromogenic substrate, Pefachrome PC (delta-carbobenzloxy-D-lysine-L-prolyl-L-arginine-p-nitroanilide), obtained from Pentapharm Ltd.). […] Purified human aPC was obtained from Hematologic Technologies, Inc. The enzyme was diluted into HBSA prior to assay in which the final concentration was 1.0 nM.

[4] = target: Chymotrypsin (Bos taurus, UniProt P00766); experiment: In vitro enzyme assay for specificity: chymotrypsin; format: biochemical, bovine; details: 1.0 nM enzyme, 30 min preincubation, pH 7.5; mean of at least two experiments
Description: Chymotrypsin catalytic activity was determined using the chromogenic substrate, S-2586 (methoxy-succinyl-L-arginine-L-prolyl-L-tyrosyl-p-nitroanilide), which was obtained from Kabi Diagnostica. […] Purified (3×-crystallized;CDI) bovine pancreatic alpha-chymotrypsin was obtained from Worthington Biochemical Corp. The enzyme was reconstituted in deionized water and diluted into HBSA prior to assay in which the final concentration was 1.0 nM.

[5] = target: Plasmin (Homo sapiens, UniProt P00747); experiment: In vitro enzyme assay for specificity: plasmin; format: biochemical; details: 1.0 nM enzyme, 30 min preincubation, pH 7.5; mean of at least two experiments
Description: Plasmin catalytic activity was determined using the chromogenic substrate, S-2251 [D-valyl-L-leucyl-L-lysine-p-nitroanilide], which was obtained from Kabi Diagnostica.

[6] = target: alpha-thrombin (Homo sapiens, UniProt P00734); experiment: In vitro enzyme assay for specificity: thrombin amidolytic activity; format: biochemical; details: 0.25 nM enzyme, 30 min preincubation, pH 7.5, mean of at least two experiments
Description: The buffer used for all assays was HBSA (10 mM HEPES, pH 7.5, 150 mM sodium chloride, 0.1% bovine serum albumin). […] Following a 30-minute incubation at ambient temperature, 50 microliters of the substrate at the concentrations specified below, was added to the wells yielding a final total volume of 200 microliters. The initial velocity of chromogenic substrate hydrolysis was measured by the change in absorbance at 405 nm using a Thermo Max® Kinetic Microplate Reader over a 5 minute period in which less than 5% of the added substrate was utilized.
Thrombin catalytic activity was determined using the chromogenic substrate Pefachrome t-PA (CH3 SO2 -D-hexahydrotyrosine-glycyl-L-arginine-p-nitroanilide, obtained from Pentapharm Ltd.). The substrate was made up in deionized water followed by dilution in HBSA prior to the assay in which the final concentration was 300 micromolar (about 5-times Km). Purified human alpha-thrombin was obtained from Enzyme Research Laboratories, Inc. The enzyme was diluted into HBSA prior to the assay in which the final concentration was 0.25 nM.

[7] = test system: rat plasma; experiment: Ex vivo anticoagulant effect, activated partial thromboplastin time (APTT) in rat plasma; format: biochemical; details: citrated rat plasma; control 19 seconds; mean of two independent determinations
Description: (§1) The control clotting times (0 inhibitor) for rat and human plasma were 19 seconds and 29 seconds, respectively. The concentration of BzlSO2 -norVal(cyclo)-Gly-Ala(3-guanPip)-al which caused a doubling of the control clotting time in rat and human plasma was 12.7 micromolar and 9.1 micromolar, respectively. The data is the mean of two independent determinations.
(§2) Fresh frozen citrated pooled normal human plasma was obtained from George King Biomedical, Overland Park, KA. Pooled normal rat plasma was prepared from citrated whole blood collected from anesthetized rats using standard procedures. The plasma was flash frozen and stored at-80° C. until use. Measurements APTT was made using the Coag-A-Mate RA4 automated coagulometer (General Diagnostics, Organon Technica, Oklahoma City, Okla.) using the Automated APTT reagent (Organon Technica, Durham, N.C.) as the initiator of clotting according to the manufacturers instructions. The assay was conducted by making a series of dilution's of Isomer B in rapidly thawed plasma followed by adding 200 microliters to the wells of the assay carousel.

[8] = test system: FeCl3-induced platelet-dependent arterial thrombosis; experiment: Rat model of FeCl3-induced platelet-dependent arterial thrombosis; format: in vivo; details: single i.v. bolus, n=6, saline 6/6
Description: Kurz, K. D., Main, B. W., and Sandusky, G. E., Thromb. […] In this model a platelet-rich, occlusive thrombus is formed in a segment of the rat carotid artery treated locally with a fresh solution of FeCl3 absorbed to a piece of filter paper. The FeCl3 is thought to diffuse into the treated segment of artery and causes de-endothelialization of the affected vessel surface. […] The effect of a test compound on the incidence of occlusive thrombus formation following the application of the FeCl3 is monitored by ultrasonic flowtometry and is used as the primary end point. The use of flowtometry to measure carotid artery blood flow, is a modification of the original procedure in which thermal detection of clot formation was employed. Kurz, K. D., Main, B. W., and Sandusky, G. E., Thromb. […] The animals were prepared, anesthetized with Nembutal followed by the insertion of catheters for blood pressure monitoring, drug and anesthesia delivery. The left carotid artery was isolated by making a midline cervical incision followed by blunt dissection and spreading techniques to separate a 2 cm segment of the vessel from the carotid sheath. A silk suture is inserted under the proximal and distal ends of the isolated vessel to provide clearance for the placement of a ultrasonic flow probe (Transonic) around the proximal end of the vessel. The probe is then secured with a stationary arm. […] The test compound was administered as a single intravenous bolus at the doses outlined in Table 3 after placement of the flow probe and 5 minutes prior to the thrombogenic stimulus.

[9] = test system: human plasma; experiment: Ex vivo anticoagulant effect, activated partial thromboplastin time (APTT) in human plasma; format: biochemical; details: citrated human plasma; control 29 seconds; mean of two independent determinations
Description: as §1, §2

[10] = test system: trypsin, plasmin and kallikrein; details: Markwardt et al. 1972, inhibiting trypsin; cited from earlier work
[11] = Markwardt et al. 1972; cited from earlier work
[12] = literature report; cited from earlier work

T3 sequence (P04070 43-197 limits assumed): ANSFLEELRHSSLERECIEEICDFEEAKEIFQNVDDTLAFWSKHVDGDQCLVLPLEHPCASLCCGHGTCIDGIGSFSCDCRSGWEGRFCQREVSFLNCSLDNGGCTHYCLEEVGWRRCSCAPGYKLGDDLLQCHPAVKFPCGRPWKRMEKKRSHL
T3 sequence (P04070 212-461 limits assumed): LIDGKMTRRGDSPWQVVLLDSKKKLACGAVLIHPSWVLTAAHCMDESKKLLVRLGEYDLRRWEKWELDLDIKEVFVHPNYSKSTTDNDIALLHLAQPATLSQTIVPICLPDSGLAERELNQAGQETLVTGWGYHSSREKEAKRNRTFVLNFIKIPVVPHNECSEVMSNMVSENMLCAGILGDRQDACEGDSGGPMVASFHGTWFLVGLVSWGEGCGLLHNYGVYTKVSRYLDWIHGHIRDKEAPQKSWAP
Sequence of Plasmin (P00747 97-580 limits assumed): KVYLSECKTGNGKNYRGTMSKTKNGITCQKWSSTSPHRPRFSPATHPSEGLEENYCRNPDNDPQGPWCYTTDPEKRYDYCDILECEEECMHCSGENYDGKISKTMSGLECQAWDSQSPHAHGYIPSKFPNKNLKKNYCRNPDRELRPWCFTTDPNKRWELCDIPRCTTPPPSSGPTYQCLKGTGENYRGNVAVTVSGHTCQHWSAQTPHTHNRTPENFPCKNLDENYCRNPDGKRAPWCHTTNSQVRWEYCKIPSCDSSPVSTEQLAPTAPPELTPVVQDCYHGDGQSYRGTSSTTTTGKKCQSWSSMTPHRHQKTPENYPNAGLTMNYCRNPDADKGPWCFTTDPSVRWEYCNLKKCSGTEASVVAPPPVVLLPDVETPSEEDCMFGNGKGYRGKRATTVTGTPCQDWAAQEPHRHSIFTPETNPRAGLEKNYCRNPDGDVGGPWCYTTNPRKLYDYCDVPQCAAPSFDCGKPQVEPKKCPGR
Sequence of Plasmin (P00747 581-810 limits assumed): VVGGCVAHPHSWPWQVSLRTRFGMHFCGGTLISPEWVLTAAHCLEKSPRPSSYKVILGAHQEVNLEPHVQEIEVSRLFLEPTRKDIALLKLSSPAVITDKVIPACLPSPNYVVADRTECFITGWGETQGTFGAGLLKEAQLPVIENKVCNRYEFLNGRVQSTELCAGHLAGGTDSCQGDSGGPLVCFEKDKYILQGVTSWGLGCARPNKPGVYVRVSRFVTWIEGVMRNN
T1 sequence (P00750 36-562): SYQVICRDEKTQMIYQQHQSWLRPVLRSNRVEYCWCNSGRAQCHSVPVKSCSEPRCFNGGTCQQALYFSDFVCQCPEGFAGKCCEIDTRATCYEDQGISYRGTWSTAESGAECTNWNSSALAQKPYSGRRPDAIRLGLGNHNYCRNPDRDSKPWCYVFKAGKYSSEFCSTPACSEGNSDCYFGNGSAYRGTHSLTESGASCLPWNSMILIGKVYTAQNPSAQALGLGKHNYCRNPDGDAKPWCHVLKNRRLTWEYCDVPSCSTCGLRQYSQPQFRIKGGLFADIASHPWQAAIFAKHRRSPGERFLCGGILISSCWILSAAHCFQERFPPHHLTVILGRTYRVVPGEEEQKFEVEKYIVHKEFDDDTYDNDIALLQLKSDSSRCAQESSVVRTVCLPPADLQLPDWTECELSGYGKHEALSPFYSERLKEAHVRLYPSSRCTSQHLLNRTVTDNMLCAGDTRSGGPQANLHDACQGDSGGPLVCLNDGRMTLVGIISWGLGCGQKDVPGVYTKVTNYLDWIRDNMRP

Compound | IC50 [2] [µM] | IC50 [3] [µM] | IC50 [4] [µM] | IC50 [5] [µM] | IC50 [6] [µM] | also measured
N=C(N)N1CCCC(C[C@@H](C=O)NC(=O)CN2CCC[C@H](NS(=O)(=O)Cc3ccccc3)C2=O)C1 (single isomer, unassigned) [A, benzylsulfonyl-norval(cyclo)-Gly-3-[3-piperidyl-(N-guanidino)]-L-alaninal] | > 25 | > 25 | > 25 | > 2.5 | 0.0288 | IC50 [1]: > 25 µM
N=C(N)N1CCCC(C[C@@H](C=O)NC(=O)CN2CCCC[C@H](NS(=O)(=O)Cc3ccccc3)C2=O)C1 (single isomer, unassigned) [C, N-(BnSO2-norLeu(cyclo)-Gly)-3-[3-piperidyl-(N-guanidino)]alaninal] | 11.2 | > 2.5 | > 2.5 | > 2.5 |  | 
N=C(N)N1CCCC(C[C@@H](C=O)NC(=O)CN2CCCC[C@H](NS(=O)(=O)Cc3ccccc3)C2=O)C1 (single isomer, unassigned) [D, N-(BnSO2-norLeu(cyclo)-Gly)-3-[3-piperidyl-(N-guanidino)]alaninal] | 34.4 | > 2.5 | > 2.5 | > 2.5 |  | 
N=C(N)N1CCCC(C[C@@H](C=O)NC(=O)CN2CCC[C@H](NS(=O)(=O)Cc3ccccc3)C2=O)C1 (single isomer, unassigned) [Isomer B, benzylsulfonyl-norval(cyclo)-Gly-3-[3-piperidyl-(N-guanidino)]-L-alaninal] |  |  |  |  | 0.0008 | concentration which caused a doubling of the control clotting time (APTT) [7]: 12.7 µM; Incidence of Occlusion ([8]; 0.3 mg/kg): 6/6; Incidence of Occlusion ([8]; 1.0 mg/kg): 4/6; Incidence of Occlusion ([8]; 3.0 mg/kg, * p ≤ 0.05 from saline control by Fishers test): 0/6; concentration which caused a doubling of the control clotting time (APTT) [9]: 9.1 µM
N=C(N)c1ccc(CC(=O)C(=O)O)cc1 [APPA, 4-amidinophenylpyruvic acid] |  |  |  |  |  | selectivity of thrombin inhibition [10]: non-selective, inhibiting trypsin, plasmin and kallikrein; pharmacokinetics [11]: favourable pharmacokinetics; toxicity [12]: low toxicity
